Legend:
[1] = target: Plasminogen (Homo sapiens, UniProt P00747); test: Compound was evaluated for its inhibitory potency against plasmin
[2] = target: Tryptase (Homo sapiens, UniProt Q9BZJ3+Q15661+Q9NRR2); test: Evaluated for its inhibitory potency against tryptase; assay type: protein assay
[3] = target: Prothrombin (Homo sapiens, UniProt P00734); test: Compound was evaluated for its inhibitory potency against thrombin
[4] = target: Serine protease 1 (Homo sapiens, UniProt P07477); test: Compound was evaluated for its inhibitory potency against trypsin
Chain of Serine protease 1 (P07477 whole entry): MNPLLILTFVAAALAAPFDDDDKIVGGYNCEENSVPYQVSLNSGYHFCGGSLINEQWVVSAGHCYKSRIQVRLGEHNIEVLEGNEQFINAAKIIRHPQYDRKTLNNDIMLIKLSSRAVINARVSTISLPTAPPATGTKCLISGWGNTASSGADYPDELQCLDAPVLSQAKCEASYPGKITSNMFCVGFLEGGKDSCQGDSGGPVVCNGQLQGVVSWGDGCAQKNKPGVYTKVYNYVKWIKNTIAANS

Chain of Plasminogen (P00747 97-580 limits assumed): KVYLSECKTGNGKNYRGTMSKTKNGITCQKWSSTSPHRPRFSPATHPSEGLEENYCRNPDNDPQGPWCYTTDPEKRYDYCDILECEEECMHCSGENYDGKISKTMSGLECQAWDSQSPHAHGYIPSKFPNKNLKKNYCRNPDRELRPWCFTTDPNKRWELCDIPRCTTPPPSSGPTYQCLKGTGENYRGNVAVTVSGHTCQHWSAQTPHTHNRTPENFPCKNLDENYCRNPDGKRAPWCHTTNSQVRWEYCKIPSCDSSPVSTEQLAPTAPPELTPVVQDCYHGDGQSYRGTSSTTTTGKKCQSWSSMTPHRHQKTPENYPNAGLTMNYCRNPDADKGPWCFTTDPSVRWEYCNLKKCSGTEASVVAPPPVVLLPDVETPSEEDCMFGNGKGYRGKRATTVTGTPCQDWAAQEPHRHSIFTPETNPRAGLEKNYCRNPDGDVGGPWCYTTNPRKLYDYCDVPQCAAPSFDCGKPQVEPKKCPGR
Chain of Plasminogen (P00747 581-810 limits assumed): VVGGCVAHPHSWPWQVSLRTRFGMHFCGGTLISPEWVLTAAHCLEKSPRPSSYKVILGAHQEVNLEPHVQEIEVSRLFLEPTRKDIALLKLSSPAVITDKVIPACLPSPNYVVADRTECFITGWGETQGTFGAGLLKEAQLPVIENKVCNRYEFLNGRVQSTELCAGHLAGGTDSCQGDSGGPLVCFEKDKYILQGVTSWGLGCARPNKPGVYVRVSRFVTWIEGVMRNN

Row | SMILES | Ki [1] | Ki [2] | Ki [3] | Ki [4]
1 | N=C(N)Nc1ccc(CNC(=O)N2CCN(C(=O)O[C@H]3CCC[C@@H](OC(=O)N4CCN(C(=O)NCCc5ccncc5)CC4)CCC3)CC2)cc1 | > 1 mM | 0.9 µM | > 1 mM | 131 µM
2 | NC[C@H]1CC[C@H](CNC(=O)N2CCN(C(=O)O[C@H]3CCC[C@@H](OC(=O)N4CCN(C(=O)NC[C@H]5CC[C@H](CN)CC5)CC4)CCC3)CC2)CC1 | > 1 mM | 0.016 µM | > 1 mM | > 1000 µM
3 | N=C(N)Nc1ccc(CNC(=O)N2CCN(C(=O)O[C@H]3CCC[C@@H](OC(=O)N4CCN(C(=O)CCCCCn5ccnc5)CC4)CCC3)CC2)cc1 | > 1 mM | 0.03 µM | > 1 mM | 171 µM
4 | N=C(N)Nc1ccc(CNC(=O)N2CCN(C(=O)O[C@@H]3CO[C@H]4[C@@H]3OC[C@H]4OC(=O)N3CCN(C(=O)NCc4ccc(NC(=N)N)cc4)CC3)CC2)cc1 | 0.7 mM |  | 0.138 mM | 15 µM
5 | N=C(N)Nc1ccc(CCC(=O)N2CCN(C(=O)O[C@H]3CCC[C@@H](OC(=O)N4CCN(C(=O)CCc5ccc(NC(=N)N)cc5)CC4)CCC3)CC2)cc1 | > 1 mM | 0.21 µM | 0.537 mM | > 1000 µM
6 | O=C(NCCC1CCNCC1)N1CCN(C(=O)O[C@H]2CCC[C@@H](OC(=O)N3CCN(C(=O)NCCC4CCNCC4)CC3)CCC2)CC1 | > 1 mM | 0.115 µM | > 1 mM | > 1000 µM
7 | NCCc1ccc(CCNC(=O)N2CCN(C(=O)O[C@H]3CCC[C@@H](OC(=O)N4CCN(C(=O)NCCc5ccc(CCN)cc5)CC4)CCC3)CC2)cc1 | 0.57 mM | 1 µM | > 1 mM | > 1000 µM
8 | N=C(N)Nc1ccc(CNC(=O)N2CCN(C(=O)O[C@H]3CCC[C@@H](OC(=O)N4CCN(C(=O)NCCCN)CC4)CCC3)CC2)cc1 | > 1 mM | 0.044 µM | > 1 mM | 138 µM
9 | N=C(N)Nc1ccc(CNC(=O)N2CCN(C(=O)O[C@H]3C[C@H]4C[C@@H](OC(=O)N5CCN(C(=O)NCc6ccc(NC(=N)N)cc6)CC5)C[C@H]4C3)CC2)cc1 |  | 0.028 µM | > 1 mM | 4 µM
10 | N=C(N)Nc1ccc(CNC(=O)N2CCN(C(=O)O[C@H]3CCC[C@@H](OC(=O)N4CCN(C(=O)CCCC5CCNCC5)CC4)CCC3)CC2)cc1 | > 1 mM | 0.004 µM | > 1 mM | 262 µM
11 | N=C(N)Nc1ccc(CNC(=O)N2CCN(C(=O)OC[C@H]3CC[C@H](COC(=O)N4CCN(C(=O)NCc5ccc(NC(=N)N)cc5)CC4)CC3)CC2)cc1 | > 1 mM | 0.003 µM |  | 28 µM
12 | N=C(N)Nc1ccc(CNC(=O)N2CCN(C(=O)O[C@H]3CCC[C@@H](OC(=O)N4CCN(C(=O)NC[C@H]5CC[C@H](N)CC5)CC4)CCC3)CC2)cc1 | > 1 mM | 0.001 µM | > 1 mM | 141 µM
13 | NCCCCCNC(=O)N1CCN(C(=O)O[C@H]2CCC[C@@H](OC(=O)N3CCN(C(=O)NCCCCCN)CC3)CCC2)CC1 | > 1 mM | 0.011 µM | > 1 mM | 754 µM
14 | N=C(N)Nc1ccc(CNC(=O)N2CCN(C(=O)O[C@H]3CCC[C@@H](OC(=O)N4CCN(C(=O)CCc5ccc(N)nc5)CC4)CCC3)CC2)cc1 | > 1 mM | 0.18 µM | > 1 mM | 156 µM
15 | N=C(N)Nc1ccc(CNC(=O)N2CCN(C(=O)O[C@H]3CCC[C@@H](OC(=O)N4CCN(C(=O)NCCC5CCNCC5)CC4)CCC3)CC2)cc1 | > 1 mM | 0.003 µM | > 1 mM | 121 µM
16 | N=C(N)Nc1ccc(CNC(=O)N2CCN(C(=O)CCCCCCC(=O)N3CCN(C(=O)NCc4ccc(NC(=N)N)cc4)CC3)CC2)cc1 | > 1 mM | 0.0001 µM | > 1 mM | 34 µM
17 | NCC12CCC(CNC(=O)N3CCN(C(=O)O[C@H]4CCC[C@@H](OC(=O)N5CCN(C(=O)NCC67CCC(CN)(CC6)CC7)CC5)CCC4)CC3)(CC1)CC2 | > 1 mM | 0.3 µM | > 1 mM | 95 µM
18 | CN(CCC1CCNCC1)C(=O)N1CCN(C(=O)O[C@H]2CCC[C@@H](OC(=O)N3CCN(C(=O)NCc4ccc(NC(=N)N)cc4)CC3)CCC2)CC1 | > 1 mM | 0.68 µM | > 1 mM | 126 µM
19 | NCc1ccc(CNC(=O)N2CCN(C(=O)O[C@H]3CCC[C@@H](OC(=O)N4CCN(C(=O)NCc5ccc(CN)cc5)CC4)CCC3)CC2)cc1 | > 1 mM | 0.0001 µM | > 1 mM | 219 µM
20 | N=C(N)Nc1ccc(CNC(=O)N2CCN(C(=O)OCC34CCC(COC(=O)N5CCN(C(=O)NCc6ccc(NC(=N)N)cc6)CC5)(CC3)CC4)CC2)cc1 | 0.003 mM | 0.0004 µM | 0.123 mM | 20 µM
21 | O=C(NCc1ccccc1)N1CCN(C(=O)O[C@H]2CCC[C@@H](OC(=O)N3CCN(C(=O)NCc4ccccc4)CC3)CCC2)CC1 |  | 101 µM |  | 

Row | SMILES | Ki [1] | Ki [2] | Ki [3] | Ki [4]
22 | N=C(N)c1ccc(CCC(=O)N2CCN(C(=O)O[C@H]3CCC[C@@H](OC(=O)N4CCN(C(=O)CCc5ccc(C(=N)N)cc5)CC4)CCC3)CC2)cc1 | 0.066 mM | 0.0004 µM | 0.029 mM | 21 µM
23 | NCCc1ccc(CC(=O)N2CCN(C(=O)O[C@H]3CCC[C@@H](OC(=O)N4CCN(C(=O)Cc5ccc(CCN)cc5)CC4)CCC3)CC2)cc1 | > 1 mM | 0.002 µM | > 1 mM | > 1000 µM
24 | N=C(N)Nc1ccc(CNC(=O)N2CCN(C(=O)OCc3ccc(COC(=O)N4CCN(C(=O)NCc5ccc(NC(=N)N)cc5)CC4)cc3)CC2)cc1 | > 1 mM | 0.0004 µM | > 1 mM | 17 µM
25 | O=C(CCCCCn1ccnc1)N1CCN(C(=O)O[C@H]2CCC[C@@H](OC(=O)N3CCN(C(=O)CCCCCn4ccnc4)CC3)CCC2)CC1 | > 1 mM | 46 µM | > 1 mM | > 1000 µM
26 | N=C(N)N1CCC(CCC(=O)N2CCN(C(=O)O[C@H]3CCC[C@@H](OC(=O)N4CCN(C(=O)CCC5CCN(C(=N)N)CC5)CC4)CCC3)CC2)CC1 | > 1 mM | 0.002 µM | 0.213 mM | 171 µM
27 | N=C(N)Nc1ccc(CNC(=O)N2CCN(C(=O)CCCCCC(=O)N3CCN(C(=O)NCc4ccc(NC(=N)N)cc4)CC3)CC2)cc1 | > 1 mM | 0.004 µM | > 1 mM | 52 µM
28 | N=C(N)Nc1ccc(CNC(=O)N2CCN(C(=O)CCCCCCCCC(=O)N3CCN(C(=O)NCc4ccc(NC(=N)N)cc4)CC3)CC2)cc1 | > 1 mM | 0.0007 µM | > 1 mM | 20 µM
29 | N=C(N)Nc1ccc(CNC(=O)N2CCN(C(=O)O[C@H]3CCC[C@@H](OC(=O)N4CCN(C(=O)CCCn5ccnc5)CC4)CCC3)CC2)cc1 | > 1 mM | > 1000 µM | > 1 mM | 158 µM
30 | N=C(N)Nc1ccc(CNC(=O)N2CCN(C(=O)OC[C@H]3C4C=CC(CC4)[C@@H]3COC(=O)N3CCN(C(=O)NCc4ccc(NC(=N)N)cc4)CC3)CC2)cc1 | 0.7 mM | 0.008 µM | 0.138 mM | 15 µM
31 | N=C(N)N1CCC(CCNC(=O)N2CCN(C(=O)O[C@H]3CCC[C@@H](OC(=O)N4CCN(C(=O)NCCC5CCN(C(=N)N)CC5)CC4)CCC3)CC2)CC1 | 0.632 mM | 0.03 µM | 0.112 mM | 850 µM
32 | N=C(N)Nc1ccc(CNC(=O)N2CCN(C(=O)O[C@H]3CCC[C@@H](OC(=O)N4CCN(C(=O)CCc5cnc(N)nc5)CC4)CCC3)CC2)cc1 | > 1 mM | 41 µM | > 1 mM | 165 µM
33 | N=C(N)Nc1ccc(CNC(=O)N2CCN(C(=O)O[C@H]3CCC[C@@H](OC(=O)N4CCN(C(=O)NC[C@H]5CC[C@@H](N)CC5)CC4)CCC3)CC2)cc1 | > 1 mM | 0.078 µM | 0.274 mM | 171 µM
34 | NCCCCNC(=O)N1CCN(C(=O)O[C@H]2CCC[C@@H](OC(=O)N3CCN(C(=O)NCCCCN)CC3)CCC2)CC1 | > 1 mM | 0.51 µM | > 1 mM | > 1000 µM
35 | CC(=N)N1CCC(CCNC(=O)N2CCN(C(=O)O[C@H]3CCC[C@@H](OC(=O)N4CCN(C(=O)NCCC5CCN(C(C)=N)CC5)CC4)CCC3)CC2)CC1 | > 1 mM | 255 µM | > 1 mM | > 1000 µM
36 | CN1CCC(CCNC(=O)N2CCN(C(=O)O[C@H]3CCC[C@@H](OC(=O)N4CCN(C(=O)NCc5ccc(NC(=N)N)cc5)CC4)CCC3)CC2)CC1 | > 1 mM | 3 µM | 0.269 mM | 110 µM
37 | N=C(N)N1CCC(CNC(=O)N2CCN(C(=O)O[C@H]3CCC[C@@H](OC(=O)N4CCN(C(=O)NCC5CCN(C(=N)N)CC5)CC4)CCC3)CC2)CC1 | > 1 mM | 0.61 µM | 0.146 mM | > 1000 µM
38 | N=C(N)Nc1ccc(CNC(=O)N2CCN(C(=O)O[C@H]3CCC[C@@H](OC(=O)N4CCN(C(=O)NCCCC5CCNCC5)CC4)CCC3)CC2)cc1 | > 1 mM | 0.24 µM | > 1 mM | 80 µM
39 | N=C(N)Nc1ccc(CNC(=O)N2CCN(C(=O)OCC34CC5CC(C3)CC(COC(=O)N3CCN(C(=O)NCc6ccc(NC(=N)N)cc6)CC3)(C5)C4)CC2)cc1 | 0.576 mM | 0.01 µM | 0.363 mM | 17 µM
40 | N=C(N)Nc1ccc(CNC(=O)N2CCN(C(=O)O[C@H]3CCC[C@@H](OC(=O)N4CCN(C(=O)NCc5ccccc5)CC4)CCC3)CC2)cc1 |  | 15 µM |  | 
41 | N=C(N)Nc1ccc(CNC(=O)N2CCN(C(=O)O[C@H]3CCC[C@@H](OC(=O)N4CCN(C(=O)CCCCn5ccnc5)CC4)CCC3)CC2)cc1 | > 1 mM | 1 µM | > 1 mM | 144 µM
42 | N=C(N)Nc1ccc(CNC(=O)N2CCN(C(=O)O[C@H]3CCC[C@@H](OC(=O)N4CCN(C(=O)NCCCCN)CC4)CCC3)CC2)cc1 | > 1 mM | 0.004 µM | > 1 mM | 132 µM
